Literature values as cited in article PMC10145264, “Synthesis and Biological Properties of EGFR-Targeted Photosensitizer Based on Cationic Porphyrin” (Pharmaceutics, 2023).

Key:
[1] = design: method as in PMID 24063545; details: standard value
[2] = design: method as in doi:10.1016/j.chemphys.2006.07.040, doi:10.1007/BF03356111, doi:10.1016/j.jphotochemrev.2020.100401; details: standard value

Structure (SMILES): C1=Cc2nc1c(-c1ccccc1)c1ccc([n-]1)c(-c1ccccc1)c1nc(c(-c3ccccc3)c3ccc([n-]3)c2-c2ccccc2)C=C1.[Zn+2] [ZnTPP, zinc tetraphenylporphyrin]
- singlet oxygen quantum yield (ΦΔ) [1]: 0.74
- fluorescence quantum yield (ΦF) [2]: 0.033
